Experiments:
[1] = test system: HS 578T-1x2; assay: CellTiter-Glo cell proliferation assay; type: cell-based; conditions: Breast, WT
[2] = test system: Cal 85-1; assay: CellTiter-Glo cell proliferation assay; type: cell-based; conditions: Homo sapiens, Breast, WT
[3] = test system: H647; assay: CellTiter-Glo cell proliferation assay; type: cell-based; conditions: Homo sapiens, NCI-H647, Lung(NSCLC), K-RAS
[4] = test system: HCT116; assay: CellTiter-Glo cell proliferation assay; type: cell-based; conditions: Homo sapiens, HCT-116, Colon, KRAS/HET.1047H > R
[5] = test system: H1793; assay: CellTiter-Glo cell proliferation assay; type: cell-based; conditions: Homo sapiens, NCI-H1793, Lung(NSCLC), WT
[6] = test system: CAL120; assay: CellTiter-Glo cell proliferation assay; type: cell-based; conditions: Homo sapiens, CAL-120, Breast, WT
Description: (§2) Cell Culture Medium: RPMI or DMEM high glucose, 10% Fetal Bovine Serum, 2 mM L-Glutamine, P/S. Incubate O/N (overnight) at 37° C., 5% CO2.
(§3) Drug Addition to Cells, Cell Plate (1:10 dilution): Add 6 μl of media+compound directly to cells (54 μl of media on the cells already). Incubate 3 days at 37° C., 5% CO2 in an incubator that will not be opened often.
(§4) Day 5—Develop Plates, Thaw Cell Titer Glo Buffer at room temperature: Remove Cell Plates from 37° C. and equilibrate to room temperature for about 30 minutes. Add Cell Titer-Glo® Buffer to Cell Titer-Glo® Substrate (bottle to bottle). Add 30 μl Cell Titer-Glo® Reagent (Promega cat.#G7572) to each well of cells. Place on plate shaker for about 30 minutes. Read luminescence on Analyst HT Plate Reader (half second per well).

[7] = test system: H417; assay: CellTiter-Glo cell proliferation assay; type: cell-based; conditions: Homo sapiens, NCI-H417, Lung(SC), Helical-HET.546Q > K, HOM.391I > M
[8] = test system: MO59K; assay: CellTiter-Glo cell proliferation assay; type: cell-based; conditions: Glioma, PTEN/KRAS
[9] = test system: HCC-1428; assay: CellTiter-Glo cell proliferation assay; type: cell-based; conditions: Homo sapiens, HCC1428, Breast, WT
[10] = test system: C32; assay: CellTiter-Glo cell proliferation assay; type: cell-based; conditions: Homo sapiens, Melanoma, PTEN/B-Raf
[11] = test system: KP4x1; assay: CellTiter-Glo cell proliferation assay; type: cell-based; conditions: Pancreatic, K-RAS
[12] = test system: CAL-148; assay: CellTiter-Glo cell proliferation assay; type: cell-based; conditions: Homo sapiens, Breast, Kinase(HET.1047H > R)/-PTEN
Description: as §2, §3, §4

[13] = test system: MDA-MB-436; assay: CellTiter-Glo cell proliferation assay; type: cell-based; conditions: Homo sapiens, Breast, PTEN
[14] = test system: H1703; assay: CellTiter-Glo cell proliferation assay; type: cell-based; conditions: Homo sapiens, NCI-H1703, Lung(NSCLC), WT
[15] = test system: TOV21GX1; assay: CellTiter-Glo cell proliferation assay; type: cell-based; conditions: Ovarian, PTEN/HET.1047H > Y
[16] = test system: SW403; assay: CellTiter-Glo cell proliferation assay; type: cell-based; conditions: Homo sapiens, SW-403, Colon, KRAS/HET.546Q > K
[17] = test system: SW48 isogenic cells; parental and PIK3CA knock-in mutants E545K and H1047R; assay: western blot of cell lysates after 18 hours of GDC-0032 exposure; type: cell-based; conditions: lysates collected 18 hours post dosing
[18] = test system: CAL51; assay: CellTiter-Glo cell proliferation assay; type: cell-based; conditions: Homo sapiens, CAL-51, Breast, PTEN/HET.542E > K
Description: as §2, §3, §4

[19] = test system: HCC-202; assay: CellTiter-Glo cell proliferation assay; type: cell-based; conditions: HCC202, Breast, Helical-HET.545E > K, HET.866L > F, HET.391I > M
[20] = test system: H1781; assay: CellTiter-Glo cell proliferation assay; type: cell-based; conditions: NCI-H1781, Lung(NSCLC), PTEN
[21] = test system: MFM223; assay: CellTiter-Glo cell proliferation assay; type: cell-based; conditions: Homo sapiens, MFM-223, Breast, Kinase-HET.1047H > R, HET.350D > N
Description: as §2, §3, §4

[22] = test system: H2122; assay: CellTiter-Glo cell proliferation assay; type: cell-based; conditions: Homo sapiens, NCI-H2122, Lung(NSCLC), K-RAS
[23] = test system: MDA-MB-453; assay: CellTiter-Glo cell proliferation assay; type: cell-based; conditions: Homo sapiens, Breast, Kinase-HET.1047H > R, HET.350D > N
[24] = test system: HT-29; assay: CellTiter-Glo cell proliferation assay; type: cell-based; conditions: Homo sapiens, Colon, K-RAS
[25] = test system: HCC1954.x1 breast tumor xenografts; assay: In vivo mouse tumor xenograft efficacy; parameters: species or system mice; conditions: for % TGI@ day 21: QD x 21, PO
Description: The term uL means microliter.
(§1) Xenografts were initiated with cancer cells. […] Volume was calculated using the formula: […]

[26] = test system: MCF-7 breast tumor xenografts; assay: In vivo mouse tumor xenograft efficacy; parameters: species or system mice
Description: Fulvestrant was dosed subcutaneously with 5 mg of drug once a week (qw) for 3 weeks.
Paclitaxel was dosed intravenously every 4 days for 5 cycles with 7.5 mg/kg of drug.
as §1

[27] = test system: H2030; assay: CellTiter-Glo cell proliferation assay; type: cell-based; conditions: Homo sapiens, NCI-H2030, Lung(NSCLC), K-RAS
[28] = test system: EFO21; assay: CellTiter-Glo cell proliferation assay; type: cell-based; conditions: Homo sapiens, EFO-21, Ovarian, PTEN
[29] = target: PI3K alpha H1047R mutant (Homo sapiens, UniProt P42336, H1047R); conditions: relative to PI3K alpha
Description: After an incubation time of 30 minutes at room temperature, the reactions were stopped by the addition of GRP-1 and PIP3-TAMRA probe (Echelon-Inc., Salt Lake City, Utah.) 100 nM and 5 nM final concentrations respectively. Read with standard cut-off filters for the rhodamine fluorophore (λex=530 nm; λem=590 nm) in 384-well black low volume Proxiplates® (PerkinElmer, Wellesley, Mass.) Fluorescence polarization values were plotted as a function of the protein concentration. EC50 values were obtained by fitting the data to a four-parameter equation using KaleidaGraph® software (Synergy software, Reading, Pa.). This experiment also establishes the appropriate protein concentration to use in subsequent competition experiments with inhibitors.
After an incubation time of 30 minutes at room temperature, the reactions were stopped by the addition of GRP-1 and PIP3-TAMRA probe (Echelon-Inc., Salt Lake City, Utah.) 100 nM and 5 nM final concentrations respectively.
The compound was serially diluted in 100% DMSO. The kinase reaction was incubated for 1 h at room temperature, and the reaction was terminated by the addition of PBS. IC50 values were subsequently determined using sigmoidal dose-response curve fit (variable slope).

[30] = test system: HCC-1419; assay: CellTiter-Glo cell proliferation assay; type: cell-based; conditions: Homo sapiens, HCC1419, Breast, WT
[31] = test system: LS-180; assay: CellTiter-Glo cell proliferation assay; type: cell-based; conditions: Homo sapiens, LS180, Colon, KRAS/HET.1047H > R
[32] = test system: ABC-1; assay: CellTiter-Glo cell proliferation assay; type: cell-based; conditions: Homo sapiens, Lung(NSCLC), WT
[33] = test system: SW48 PIK3CA E545K knock-in mutant subclone; assay: four day CellTiter-Glo viability assay, SW48 isogenic cell line set; conditions: Homo sapiens, SW48, 96 h, read-out: Viability EC50
Description: SW48 parental cells and knock-in mutant subclones harboring common PIK3CA hotspot mutations E545K or H1047R were obtained from Horizon Discovery.

[34] = test system: HCC-70; assay: CellTiter-Glo cell proliferation assay; type: cell-based; conditions: Homo sapiens, HCC70, Breast, PTEN
[35] = test system: DLD-1; assay: CellTiter-Glo cell proliferation assay; type: cell-based; conditions: Homo sapiens, Colon, KRAS/HET.545E > K

Chain of PI3K alpha H1047R mutant (P42336 whole entry H1047R): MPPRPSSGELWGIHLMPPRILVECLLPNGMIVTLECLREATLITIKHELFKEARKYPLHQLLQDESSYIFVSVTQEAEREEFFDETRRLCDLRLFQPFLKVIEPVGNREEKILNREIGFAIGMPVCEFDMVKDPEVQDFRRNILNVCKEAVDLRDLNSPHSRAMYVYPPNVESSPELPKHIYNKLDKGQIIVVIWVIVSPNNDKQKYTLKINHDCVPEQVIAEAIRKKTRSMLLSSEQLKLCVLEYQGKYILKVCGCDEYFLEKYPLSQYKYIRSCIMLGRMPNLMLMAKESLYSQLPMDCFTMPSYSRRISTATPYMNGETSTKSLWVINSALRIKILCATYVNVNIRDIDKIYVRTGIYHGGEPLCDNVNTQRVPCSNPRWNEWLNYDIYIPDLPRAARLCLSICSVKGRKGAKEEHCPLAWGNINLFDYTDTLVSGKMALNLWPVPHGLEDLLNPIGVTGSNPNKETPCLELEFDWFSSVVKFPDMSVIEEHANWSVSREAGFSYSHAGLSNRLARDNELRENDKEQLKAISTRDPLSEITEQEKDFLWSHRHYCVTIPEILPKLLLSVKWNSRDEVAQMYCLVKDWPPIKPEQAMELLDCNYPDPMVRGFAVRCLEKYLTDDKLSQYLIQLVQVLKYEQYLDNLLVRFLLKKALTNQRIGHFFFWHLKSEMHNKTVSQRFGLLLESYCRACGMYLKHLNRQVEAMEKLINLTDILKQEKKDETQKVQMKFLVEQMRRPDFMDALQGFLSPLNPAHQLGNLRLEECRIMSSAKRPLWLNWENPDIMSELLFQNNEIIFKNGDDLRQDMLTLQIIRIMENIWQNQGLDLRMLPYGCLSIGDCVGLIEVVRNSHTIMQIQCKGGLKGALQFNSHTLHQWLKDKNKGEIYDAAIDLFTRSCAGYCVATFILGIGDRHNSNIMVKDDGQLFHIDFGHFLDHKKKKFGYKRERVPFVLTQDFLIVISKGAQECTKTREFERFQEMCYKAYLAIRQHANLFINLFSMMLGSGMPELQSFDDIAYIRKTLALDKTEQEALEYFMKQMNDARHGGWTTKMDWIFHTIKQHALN
Chain of PI3K alpha H1047R mutant (P27986 whole entry partner): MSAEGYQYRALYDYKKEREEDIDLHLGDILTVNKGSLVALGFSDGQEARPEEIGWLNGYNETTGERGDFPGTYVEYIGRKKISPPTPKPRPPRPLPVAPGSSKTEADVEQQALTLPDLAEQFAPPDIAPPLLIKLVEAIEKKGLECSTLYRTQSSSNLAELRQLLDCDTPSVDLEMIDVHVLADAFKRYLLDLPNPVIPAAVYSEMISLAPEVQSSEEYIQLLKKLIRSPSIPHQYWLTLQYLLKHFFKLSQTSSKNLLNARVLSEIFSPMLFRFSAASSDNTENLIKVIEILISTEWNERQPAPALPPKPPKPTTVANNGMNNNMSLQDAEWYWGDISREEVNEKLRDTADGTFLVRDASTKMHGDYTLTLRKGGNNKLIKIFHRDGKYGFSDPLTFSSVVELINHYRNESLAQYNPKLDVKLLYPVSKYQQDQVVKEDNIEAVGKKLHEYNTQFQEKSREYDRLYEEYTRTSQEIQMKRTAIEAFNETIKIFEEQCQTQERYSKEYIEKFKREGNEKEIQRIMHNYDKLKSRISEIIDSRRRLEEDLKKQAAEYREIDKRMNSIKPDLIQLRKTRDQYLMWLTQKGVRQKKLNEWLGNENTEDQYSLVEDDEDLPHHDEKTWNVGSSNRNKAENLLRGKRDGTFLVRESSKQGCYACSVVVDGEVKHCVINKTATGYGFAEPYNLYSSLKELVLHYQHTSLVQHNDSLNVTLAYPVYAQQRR

In the case of `Cc1nc(-c2cn3c(n2)-c2ccc(-c4cnn(C(C)(C)C(N)=O)c4)cc2OCC3)n(C(C)C)n1` [GDC-0032, 2-(4-(2-(1-isopropyl-3-methyl-1H-1,2,4-triazol-5-yl)-5,6-dihydrobenzo[f]imidazo[1,2-d][1,4]oxazepin-9-yl)-1H-pyrazol-1-yl)-2-methylpropanamide], the EC50 [1] is reported as 2070 nM, the EC50 [2] is reported as 520 nM and the EC50 [3] is reported as 9020 nM. The EC50 [4] was 897 nM, the EC50 [5] was 2020 nM and the EC50 [6] was 3840 nM. It also gave an EC50 [7] of 1280 nM, an EC50 [8] of 4980 nM and an EC50 [9] of 10000 nM. The EC50 [10] was 5810 nM, the EC50 [11] was 2940 nM and the EC50 [12] was 375 nM. It also gave an EC50 [13] of 4690 nM, an EC50 [14] of 136 nM and an EC50 [15] of 10000 nM. The EC50 [16] was 143 nM, the “apoptosis induction (autoradiograms of lysates)” value [17] was “induces apoptosis in cells harboring PI3K mutations at very low compound concentrations” and the EC50 [18] was 326 nM. It also gave an EC50 [19] of 18 nM, an EC50 [20] of 561 nM and an EC50 [21] of 211 nM. The EC50 [22] was 366 nM, the EC50 [23] was 44 nM and the EC50 [24] was 75 nM. The “% TGI@ day 21” value ([25]; 1.56 mg/kg) was 53%, the “% TGI@ day 21” value ([25]; 3.125 mg/kg) was 79% and the “% TGI@ day 21” value ([25]; 6.25 mg/kg) was 98%. For the same molecule, the “% TGI@ day 21” value ([25]; 12.5 mg/kg) was 118%, the “% TGI@ day 21” value ([25]; 25 mg/kg) was 138% and the “maximum TGI” value ([25]; daily dosing, end of dosing on day 21) was 138%. For the same molecule, the tumor response ([25]; doses of 12.5 and 25 mg/kg) was “Tumor regressions were observed”, the tumor volume change ([26]; PO daily (QD), 21 days, nude mice) was “dose-dependent decrease in tumor volume” and the tumor response ([26]; all doses of GDC-0032 tested, versus vehicle) was “Increased tumor regressions”. The EC50 [27] was 2310 nM, the EC50 [28] was 10000 nM and the “PI3K alpha H1047R mutant” value [29] was 0.4x. It also gave an EC50 [30] of 46 nM, an EC50 [31] of 795 nM and an EC50 [32] of 234 nM. It also gave an EC50 [33] of 5 nM, an EC50 [34] of 43 nM and an EC50 [35] of 2500 nM.
